In assay [1] the test system is PC-14 (Lung Adenocarcinoma). In words: combination Emax (second highest fraction inhibited in the dose matrix, 72 h); higher = more inhibition; extreme values may be limits of the assay. Summed up:
(§1)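 After 24 hours at 37°C and 5% CO2 in 1536-well plates, cells in DMEM/F12 or RPMI plus 10% FBS received two-drug dose matrices for 72 hours. Viability came from CellTiter-Glo 2.0 luminescence and was scaled as inhibition, anchored at 0 by vehicle wells and at 1 by blank wells. Combination Emax is taken as the second-highest inhibition in the matrix, and Bliss excess as the observed combination effect less EA + EB − EA·EB, with EA and EB the single-agent effects.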

The subject of assay [2] is LOUCY (T-Lymphoblastic Leukemia). Described as above. The gist of the method:
as §1

The next assay concerns HuO-3N1 (Osteosarcoma). The assay is described as above. Summed up:
as §1

Assay [3] has as its system HCC-44 (Lung Adenocarcinoma). The description is as above. Summed up:
as §1

Assay [4] concerns NCI-H810 (Non-Small Cell Lung Carcinoma). Described as above. The gist of the method: as §1
For assay [5], the system named is COLO-684 (Endometrial Carcinoma). The description is as above. Summed up:
as §1

For assay [6], the system named is NKM-1 (Acute Myeloid Leukemia). The assay is described as above. Summed up:
as §1

The test system of the next assay is KYM-1 (Rhabdomyosarcoma). Described as above. Summed up: as §1
Assay [7] relates to CML-T1 (Chronic Myelogenous Leukemia). The description is as above. Summed up:
as §1

For assay [8], the system named is Becker (Low Grade Glioma). The description is as above. The gist of the method:
as §1

The test system of the next assay is ES-2 (Ovarian Carcinoma). The description is as above. The gist of the method: as §1
The test system of another assay is CHL-1 (Melanoma). Described as above. Summed up:
as §1

Assay [9] relates to EB-3 (Burkitt's Lymphoma). The assay is described as above. Summed up:
as §1

In assay [10] the test system is OV-90 (Ovarian Carcinoma). The assay is described as above. The gist of the method:
as §1

The test system of assay [11] is RMG-I (Ovarian Carcinoma). The description is as above. The gist of the method:
as §1

In assay [12] the test system is SW684 (Other Solid Carcinomas). The assay is described as above. The gist of the method: as §1
The subject of assay [13] is SK-MM-2 (Plasma Cell Myeloma). Described as above. The gist of the method: as §1
Assay [14] has as its system PC-14 (Lung Adenocarcinoma). In words: Bliss excess, mean over the matrix (fraction); higher = more synergy. The gist of the method:
as §1

Assay [15] concerns COLO-684 (Endometrial Carcinoma). Described as above. Summed up: as §1
Assay [16] relates to SJRH30 (Rhabdomyosarcoma). The assay is described as above. The gist of the method:
as §1
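Throughout, for Bliss excess, mean over the matrix: after 72 h of two-drug dosing.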

As for `CS(=O)(=O)CCNCc1ccc(-c2ccc3ncnc(Nc4ccc(OCc5cccc(F)c5)c(Cl)c4)c3c2)o1` [Lapatinib] + NC1(c2ccc(-c3nc4ccn5c(=O)[nH]nc5c4cc3-c3ccccc3)cc2)CCC1 [MK-2206] (first compound max 10 µM, 7x7, partner max 10 µM), the “combination Emax” value in [1] was determined as 0.993; in assay [2], 0.912; with HuO-3N1 (Osteosarcoma), 0.869; in assay [3], 0.852; in assay [4], 0.389; in [5] it was 0.893. Besides, the “combination Emax” value in [6] is 0.94; in the assay on KYM-1 (Rhabdomyosarcoma) it was 0.945; in assay [7], 0.948; in [8], 0.808; in the assay with ES-2 (Ovarian Carcinoma), 0.936; with CHL-1 (Melanoma) it was 0.5. In addition, the “combination Emax” value in [9] is 0.937; in [10], 0.623; in [11] it was 0.679; in assay [12], 0.686; in assay [13], 0.52. Also, the Bliss excess in assay [14] was found to be 0.0188; in [15] it was 0.0322; in assay [16] it was 0.0103.

Source of the values: the supplement of paper PMC11061612.
